Source: patent EP4410284A1, “COMPOUND AND METHOD FOR THE TREATMENT OF ZELLWEGER SPECTRUM DISORDER” (Apteeus, priority 2023, dated 2024)
Read-outs that look alike come from different tables or passages of the source.

Experiments:
[1] = tested on: GM16513 cells; format: cell-based; details: 3 days, PI positive cells (dead cells)
[2] = tested on: PEX405 cells; experiment: Catalase import immunofluorescence, high-content screening (% importing cells); format: cell-based, human; details: PEX405 cells, 3 days
[3] = tested on: GM16513 cells; experiment: as above; format: cell-based, human; details: for Emax: read-out: Max Efficacy (% Importing cells)
[4] = tested on: PEX405 cells; format: cell-based; details: 3 days, PI positive cells (dead cells)
[5] = Homo sapiens, 72 h, GM16513 cells, dose response with 6 concentrations, 3 days, read-out: EC50
[6] = Homo sapiens, 72 h, GM16513 cells, dose response with 6 concentrations, 3 days

Row | Structure (SMILES) | % PI+ cells ([1]; 1.3 µM) [%] | % PI+ cells ([1]; 10 µM) [%] | % PI+ cells ([4]; 1.3 µM) [%] | % PI+ cells ([4]; 10 µM) [%] | EC50 [3, 5] [nM] | EC50 ([3]; GM16513 cells, dose response with 6 concentrations, 3 days, read-out: EC50) [nM] | % Importing cells ([2]; 1.3 µM) [%] | % Importing cells ([2]; 10 µM) [%] | % Importing cells ([3]; GM16513 cells, 1.3 µM, 3 days) [%] | % Importing cells ([3]; GM16513 cells, 10 µM, 3 days) [%] | Emax [3, 6] [%] | EC50 ([3]; Homo sapiens, 72 h) [nM] | Emax ([3]; Homo sapiens, 72 h) [%] | Max Efficacy (% Importing cells) ([3]; GM16513 cells, dose response with 6 concentrations, 3 days) [%]
1 | CC(/C=C/C(=O)NO)=C\[C@@H](C)C(=O)c1ccc(N(C)C)cc1 [Trichostatin A] | 18 | 30 | 24 | 49 | – | – | 28 | 0 | 90 | 76 | – | – | – | –
2 | O=C(NO)c1cnc(NC2(c3cccc(F)c3)CCCCC2)nc1 [ACY-775] | 2 | 2 | 0 | 1 | – | – | 4 | 9 | 21 | 47 | – | – | – | –
3 | CCCCNNC(=O)c1ccc(Br)cc1 [UF010] | 1 | 1 | 0 | 1 | – | – | 3 | 2 | 12 | 16 | – | – | – | –
4 | O=C(CCCCCCC(=O)Nc1cccnc1)NO [Pyroxamide] | 1 | 4 | 1 | 1 | – | – | 5 | 3 | 25 | 11 | – | – | – | –
5 | Cc1[nH]c2ccccc2c1CCNCc1ccc(/C=C/C(=O)NO)cc1 [Panobinostat] | 30 | 32 | 48 | 49 | 3.14 | – | 6 | 18 | 86 | 44 | 93 | – | – | –
6 | Cn1c(CCCCCCC(=O)NO)nc2cc(N(CCCl)CCCl)ccc21 [EDO-S101] | 2 | 8 | 1 | 7 | – | – | 7 | 55 | 35 | 89 | – | 3000 | 90 | –
7 | Nc1cc(F)ccc1NC(=O)/C=C/c1cnn(C/C=C/c2ccccc2)c1 [RGFP966] | 1 | 3 | 1 | 1 | – | – | 1 | 2 | 11 | 12 | – | – | – | –
8 | Cn1cc(-c2ccc(S(=O)(=O)n3ccc(/C=C/C(=O)Nc4ccccc4N)c3)cc2)cn1 [Domatinostat] | 6 | 7 | 5 | 8 | 600 | – | 4 | 7 | 21 | 33 | 33 | – | – | –
9 | COc1ccc(Cn2ccc3ccc(C(=O)NO)cc32)cc1 [PCI-34051] | 1 | 2 | 1 | 1 | – | – | 2 | 1 | 16 | 7 | – | – | – | –
10 | CCCCOc1ccc(CC(=O)NO)cc1 [Bufexamac] | 2 | 1 | 1 | 0 | – | – | 4 | 50 | 26 | 25 | – | – | – | –
11 | COC(=O)c1ccc(OC(=O)CCCCCCC(=O)NO)cc1 [Remetinostat] | 1 | 1 | 0 | 1 | – | – | 3 | 2 | 12 | 14 | – | – | – | –
12 | O=C(CCCCCCC(=O)Nc1ccc(CN[C@H](C(=O)OC2CCCC2)c2ccccc2)cc1)NO [Tefinostat] | 2 | 2 | 1 | 23 | – | 4000 | 24 | 24 | 33 | 91 | – | – | – | 97
13 | CCOC(=O)NCCCC(=O)NCCc1ccccc1 [Santacruzamate A] | 1 | 1 | 2 | 1 | – | – | 3 | 3 | 24 | 25 | – | – | – | –
14 | Cc1cc(Cl)ccc1OCCCC(=O)NO [Droxinostat] | 1 | 1 | 0 | 2 | – | – | 3 | 4 | 12 | 23 | – | – | – | –
15 | Oc1cc(O)cc(/C=C/c2c(O)cccc2O)c1 [Gnetol] | 1 | 1 | 1 | 1 | – | – | 2 | 3 | 12 | 9 | – | – | – | –
16 | O=C(/C=C/c1ccc(CN(CCO)CCc2c[nH]c3ccccc23)cc1)NO [Dacinostat] | 31 | 35 | 45 | 56 | – | – | 25 | 0 | 88 | 76 | – | – | – | –
17 | CC(C)(C)OC(=O)Nc1ccc(-c2cc(C(=O)NCCCCCCC(=O)NO)no2)cc1 [CAY10603] | 2 | 31 | 1 | 35 | – | – | 22 | 11 | 73 | 85 | – | – | – | –

Second part, led by results:

Row | % PI+ cells ([1]; 1.3 µM) [%] | % PI+ cells ([1]; 10 µM) [%] | % PI+ cells ([4]; 1.3 µM) [%] | % PI+ cells ([4]; 10 µM) [%] | EC50 [3, 5] [nM] | EC50 ([3]; GM16513 cells, dose response with 6 concentrations, 3 days, read-out: EC50) [nM] | Structure (SMILES) | % Importing cells ([2]; 1.3 µM) [%] | % Importing cells ([2]; 10 µM) [%] | % Importing cells ([3]; GM16513 cells, 1.3 µM, 3 days) [%] | % Importing cells ([3]; GM16513 cells, 10 µM, 3 days) [%] | Emax [3, 6] [%] | EC50 ([3]; Homo sapiens, 72 h) [nM] | Emax ([3]; Homo sapiens, 72 h) [%] | Max Efficacy (% Importing cells) ([3]; GM16513 cells, dose response with 6 concentrations, 3 days) [%]
18 | 5 | 34 | 2 | 66 | – | – | Nc1ccccc1NC(=O)c1ccc(CCCC(=O)Nc2ccc([C@@H]3C[C@H]3N)cc2)cc1 [Corin] | 17 | 11 | 59 | 44 | – | – | – | –
19 | 1 | 4 | 1 | 2 | – | – | O=C(NO)c1ccc(CNc2cccc3cccnc23)cc1 [MPT0G211] | 6 | 19 | 29 | 65 | – | – | – | –
20 | 1 | 2 | 1 | 1 | 14300 | – | O=C(NO)c1ccc(CN(c2cnccn2)c2cnccn2)cc1 [KA2507] | 2 | 18 | 17 | 52 | 100 | – | – | –
21 | 4 | 9 | 3 | 29 | 250 | – | Nc1ccccc1NC(=O)c1ccc(CNc2nccc(-c3cccnc3)n2)cc1 [Mocetinostat] | 15 | 9 | 60 | 39 | 50 | – | – | –
22 | 1 | 1 | 0 | 0 | – | – | COc1cccc2c1c(O)c(C(=O)N(C)c1ccc(C(F)(F)F)cc1)c(=O)n2C [Tasquinimod] | 7 | 4 | 23 | 22 | – | – | – | –
23 | 2 | 4 | 1 | 3 | – | – | CCCCN(Cc1ccc(C(=O)NO)cc1)C(=O)Nc1ccccc1 [Nexturastat A] | 8 | 27 | 35 | 83 | – | – | – | –
24 | 1 | 2 | 1 | 1 | – | – | CC(=O)Nc1ccc(C(=O)Nc2ccccc2N)cc1 [Tacedinaline] | 2 | 4 | 15 | 18 | – | – | – | –
25 | 11 | 30 | 13 | 48 | – | – | O=C(NO)c1ccc(CNC(=O)c2[nH]c(-c3ccc(O)cc3)cc2-c2ccoc2)cc1.O=C(O)C(F)(F)F [QTX125 (TFA)] | 23 | 0 | 83 | 61 | – | – | – | –
